Earlier results as cited in patent US4868157A, “Dipeptidyl 2-amino-1,2-dideoxy-D-glucose derivatives as host resistance enhancers in AIDS-immunocompromised hosts and methods of use” (priority 1987, dated 1989).

How the values were obtained:
[1] = system: Mycobacterium aviumintracellulare
[2] = system: AIDS-related virus; details: for symptoms and/or immune function in patients: ARC or AIDS patients, clinical trials; for viral replication in patients: humans / AIDS patients
[3] = target: HIV reverse transcriptase (Human immunodeficiency virus type 1 group M subtype B, UniProt P04585)
[4] = system: AIDS-related Kaposi's sarcoma; details: AIDS-related Kaposi's sarcoma cases
[5] = system: HIV

CO[C@H]1/C=C/O[C@@]2(C)Oc3c(C)c(O)c4c(c3C2=O)C2=NC3(CCN(CC(C)C)CC3)NC2=C(NC(=O)/C(C)=C\C=C\[C@H](C)[C@H](O)[C@@H](C)[C@@H](O)[C@@H](C)[C@H](OC(C)=O)[C@@H]1C)C4=O [Ansamycin, rifabutin]
efficacy in AIDS patients with opportunistic Mycobacterium aviumintracellulare infection [1]: some efficacy

CC(C)(N1CC1C#N)N1CC1C(N)=O (stereo not drawn) [Azimexon]
symptoms and/or immune function in patients [2]: improvements in symptoms and immune function in patients with ARC but not AIDS

CC(C)(S)[C@@H](N)C(=O)O [D-Penicillamine, 3-mercapto-D-valine]
T cell levels ([2]; human, in vivo): temporarily depressed T cell levels | viral replication in patients [2]: Inhibits HIV reproduction in humans | effect on the virus ([2]; trials at George Washington University Medical Center, 13 AIDS patients with perpetually swollen glands): suppressed the virus

O=C(O)P(=O)(O)O [Foscarnet, trisodium phosphonoformate]
inhibition of HIV reverse transcriptase [3]: Inhibits HIV reverse transcriptase activity in vitro at levels pharmacologically acceptable in vivo

CC(=O)Nc1ccc(C(=O)O)cc1.CC(=O)Nc1ccc(C(=O)O)cc1.CC(=O)Nc1ccc(C(=O)O)cc1.CC(O)CN(C)C.CC(O)CN(C)C.CC(O)CN(C)C.O=c1[nH]cnc2c1ncn2[C@@H]1O[C@H](CO)[C@@H](O)[C@H]1O [Inosine pranobex, p-Acetamidobenzoic acid salt of (1-dimethylamino-2-propanol:inosinate complex 3:3:1 molar ratio)]
symptoms and/or immune function in patients [2]: improve immune function

NC(=O)c1ncn([C@@H]2O[C@H](CO)[C@@H](O)[C@H]2O)n1 [Ribavirin, 1-β-D-ribofuranosyl-1,2,4-triazole-3-carboxamide]
symptoms and/or immune function in patients [2]: improved immune function | viral replication in patients [2]: inhibited viral replication | tolerability (24-week trial in 373 ARC patients, at 12 weeks): well tolerated | safety profile (human, in vivo): acceptable

Cc1ccc(C(=O)Nc2ccc(S(=O)(=O)O)c3cc(S(=O)(=O)O)cc(S(=O)(=O)O)c23)cc1NC(=O)c1cccc(NC(=O)Nc2cccc(C(=O)Nc3cc(C(=O)Nc4ccc(S(=O)(=O)O)c5cc(S(=O)(=O)O)cc(S(=O)(=O)O)c45)ccc3C)c2)c1 [Suramin]
therapeutic benefit / clinical improvement in AIDS patients [2]: little or no evidence of clinical improvement or immunologic recovery

ammonium 21-tungsto-9-antimoniate [HPA-23]
therapeutic benefit / clinical improvement in AIDS patients [2]: no therapeutic benefit has been documented

α-Interferon
tumor regression [4]: induced tumor regression in some AIDS-related Kaposi's sarcoma cases | growth of HIV in vitro [5]: Checks the growth of HIV in vitro
